SMILES strings stand for the structures. pIC50: −log10 of the molar value. Where two headings read alike, the source gives them in different places.

The target of the assay is T1, human recombinant COX2 (hCOX2) (UniProt P35354).
T1 sequence (P35354 1-604): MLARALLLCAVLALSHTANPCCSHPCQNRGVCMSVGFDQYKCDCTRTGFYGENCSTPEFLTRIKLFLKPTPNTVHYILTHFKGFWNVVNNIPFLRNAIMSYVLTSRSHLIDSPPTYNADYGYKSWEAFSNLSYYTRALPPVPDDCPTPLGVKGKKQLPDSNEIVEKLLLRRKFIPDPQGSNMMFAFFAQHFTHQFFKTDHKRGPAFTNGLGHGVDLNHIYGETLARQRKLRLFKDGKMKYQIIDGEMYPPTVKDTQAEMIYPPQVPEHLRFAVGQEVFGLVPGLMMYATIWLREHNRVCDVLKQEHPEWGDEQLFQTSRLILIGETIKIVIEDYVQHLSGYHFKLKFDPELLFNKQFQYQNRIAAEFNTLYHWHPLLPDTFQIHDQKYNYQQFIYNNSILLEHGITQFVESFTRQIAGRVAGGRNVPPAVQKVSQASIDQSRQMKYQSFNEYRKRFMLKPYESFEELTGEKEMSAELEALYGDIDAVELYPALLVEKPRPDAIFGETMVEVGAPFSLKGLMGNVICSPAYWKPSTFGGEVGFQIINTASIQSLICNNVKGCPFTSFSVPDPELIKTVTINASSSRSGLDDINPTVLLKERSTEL
In words: LCMS-based COX2 enzymatic inhibition assay (PGE2 quantification). The note with it: for COX2 2 minutes pge2/pge2d4 area ratio Avg. LLE / COX2 2 minutes pge2 area (counts) Avg. LLE / COX2 10 minutes pge2 area (counts) Avg. LLE: average LLE; for pIC50: average. The format is biochemical. Set-up: COX2 2 minutes pge2/pge2d4 area ratio Avg; other: 2 minutes; readout pge2/pge2d4 area ratio; average; COX2 2 minutes pge2/pge2d4 area ratio Avg; LLE; average LLE; COX2 2 minutes pge2 area (counts) Avg; readout pge2 area (counts); other: 2 min; "ovine COX2 (oCOX2), human recombinant COX2 (hCOX2)". The procedure, abridged: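 PGE2 formed from arachidonic acid (final 5 μM, 2 min) was measured by LC-MS-MS against DMSO controls. Enzyme (oCOX-1 0.1 μg or hCOX2 0.2 μg) with hematin/epinephrine cofactors at pH 8.0 was given 10 min at 37 °C with compound first. Twelve-point curves run three times gave IC50.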

The mark [1] stands for this setting: 2 minutes, readout pge2/pge2d4 area ratio.
Setting [2] is: 2 minutes, readout pge2/pge2d4 area ratio, read-out: COX2 2 minutes pge2/pge2d4 area ratio Avg. IC50.
Where [3] appears, read: 2 minutes, readout pge2 area (counts).
The mark [4] stands for this setting: 2 minutes, readout pge2 area (counts), read-out: COX2 2 minutes pge2 area (counts) Avg. IC50.
Setting [5] is: read-out: COX2 2 minutes pge2/pge2d4 area ratio Avg. IC50 (microM), 2 minutes, readout pge2/pge2d4 area ratio.
The mark [6] stands for this setting: 10 minutes, readout pge2 area (counts).
The mark [7] stands for this setting: 10 minutes, readout pge2 area (counts), read-out: COX2 10 minutes pge2 area (counts) Avg. IC50.

In the case of `COc1ncc(NCc2cncs2)nc1-c1ccc(S(C)(=O)=O)cc1` [Compound 163], the “COX2 2 minutes pge2/pge2d4 area ratio Avg. LLE” value under setting [1] was 4.491. The pIC50 was 6.39 under setting [2] and 6.50 under setting [4]. For the same compound, the “COX2 2 minutes pge2 area (counts) Avg. LLE” value (“COX2 2 minutes pge2 area” below) under setting [3] is 4.597.

Regarding `CS(=O)(=O)c1ccc(-c2cccc(C3CC3c3ccoc3)n2)cc1` (single isomer, unassigned) [Compound 314, 2-[2-(furan-3-yl)cyclopropyl]-6-(4-methanesulfonylphenyl)pyridine], the “COX2 2 minutes pge2 area” value under setting [3] is given as 2.024. For the same compound, the pIC50 (read-out: COX2 2 minutes pge2/pge2d4 area ratio Avg. IC50 (microM), 2 minutes, readout pge2/pge2d4 area ratio, 2 min) is 5.28.

Consider `CS(=O)(=O)c1ccc(-c2cccc([S@+]([O-])Cc3cccs3)n2)cc1` [Compound 251], for which, under setting [1], the “COX2 2 minutes pge2/pge2d4 area ratio Avg. LLE” value stood at 3.082. Further, the pIC50 under setting [2] was 5.43 and the pIC50 under setting [4] was 5.31. Further, the “COX2 2 minutes pge2 area” value under setting [3] came to 2.9649.

For the compound `CS(=O)(=O)c1ccc(-c2cncc(C#Cc3cccs3)n2)cc1` [Compound 320], under setting [5], the pIC50 was 5.28.

With `CC(C)COc1cncc(-c2ccc(S(C)(=O)=O)cc2)n1` [Compound 293], under setting [1], the “COX2 2 minutes pge2/pge2d4 area ratio Avg. LLE” value was found to be 3.394. The “COX2 2 minutes pge2 area” value under setting [3] came out at 3.394. Moreover, the “COX2 10 minutes pge2 area (counts) Avg. LLE” value (from here on “COX2 10 minutes pge2 area”) under setting [6] came to 3.394. The pIC50 under setting [5] was 5.28.

Consider `CS(=O)(=O)c1ccc(-c2cnc(C#N)c(NCc3cccs3)n2)cc1` [Compound 169], for which the pIC50 is, setting by setting: under setting [2], 6.35; under setting [4], 6.53; under setting [7], 7.23.

In the case of `CSc1ccc(-c2cccc(NCc3ccco3)n2)cc1` [Compound 282], the “COX2 2 minutes pge2/pge2d4 area ratio Avg. LLE” value under setting [1] amounted to 1.004. Also, the “COX2 2 minutes pge2 area” value under setting [3] was 1.004. Besides, the pIC50 under setting [5] is 5.28.

For the compound `CS(=O)(=O)c1ccc(-c2cncc([S+]([O-])Cc3cccs3)n2)cc1` (stereo not shown) [Compound 303], under setting [5], the pIC50 is 5.28.

Consider `CS(=O)(=O)c1ccc(-c2cncc(NCc3ccoc3)n2)cc1` [Compound 110], for which the “COX2 2 minutes pge2/pge2d4 area ratio Avg. LLE” value under setting [1] is 5.411. Further, the pIC50 under setting [2] was 7.01 and the pIC50 under setting [4] was 7.03. Also, under setting [3], the “COX2 2 minutes pge2 area” value is 5.451.

Regarding `CS(=O)(=O)c1ccc(-c2ccnc(NCc3ccoc3)c2)cc1` [Compound 290], the pIC50 under setting [5] was 5.28.

For the compound `CS(=O)(=O)c1ccc(-c2cccc(NC(=O)c3cccs3)n2)cc1` [Compound 302], the pIC50 under setting [5] was 5.28.

As for `CS(=O)(=O)c1ccc(-c2cncc(NCc3ncc[nH]3)n2)cc1` [Compound 279], the “COX2 2 minutes pge2/pge2d4 area ratio Avg. LLE” value under setting [1] came to 4.334. In addition, the “COX2 2 minutes pge2 area” value under setting [3] is recorded as 4.334. Moreover, the pIC50 under setting [5] is 5.28.

`CS(=O)(=O)c1ccc(-c2cccc(C[C@@H](O)c3cccs3)n2)cc1` [Compound 292]: the “COX2 2 minutes pge2/pge2d4 area ratio Avg. LLE” value under setting [1] is given as 2.424. Moreover, the pIC50 under setting [2] was 5.28.

On to `CS(=O)(=O)c1ccc(-c2cncc(N3Cc4ccncc4C3)n2)cc1` [Compound 304], for which, under setting [5], the pIC50 was 5.28.

As for `CS(=O)(=O)c1ccc(-c2cnc(C(=O)O)c(NCc3cccs3)n2)cc1` [Compound 261], under setting [1], the “COX2 2 minutes pge2/pge2d4 area ratio Avg. LLE” value is on record as 4.063. In addition, the pIC50 under setting [2] was 5.34. Besides, the “COX2 2 minutes pge2 area” value under setting [3] is on record as 4.034.

For `Cc1ncc(OCc2cccs2)nc1-c1ccc(S(C)(=O)=O)cc1` [Compound 119], the “COX2 2 minutes pge2/pge2d4 area ratio Avg. LLE” value under setting [1] turned out to be 4.695. The pIC50 is 6.93 under setting [2] and 6.63 under setting [4]. Moreover, the “COX2 2 minutes pge2 area” value under setting [3] came to 4.215.

Turning to `CS(=O)(=O)c1ccc(-c2cnnc(OCc3cccs3)c2)cc1` [Compound 321], under setting [5], the pIC50 was 5.28.

As for `CC(C)CN(C)c1cncc(-c2ccc(S(C)(=O)=O)cc2)n1` [Compound 243], under setting [1], the “COX2 2 minutes pge2/pge2d4 area ratio Avg. LLE” value came to 3.642. The pIC50 by setting is: under setting [2], 5.51; under setting [4], 5.64. Under setting [3], the “COX2 2 minutes pge2 area” value was determined as 3.739.

Turning to `CS(=O)(=O)c1ccc(-n2cnc3ccc(NCc4cccs4)nc32)cc1` [Compound 184], the pIC50 was 6.24 under setting [2] and 6.34 under setting [4].

Turning to `CO/N=C(\c1ccc2ccn(-c3ccc(S(C)(=O)=O)cc3)c2n1)c1cccs1` [Compound 191], the pIC50 was 6.13 under setting [2] and 6.05 under setting [4].

As to `CS(=O)(=O)c1ccc(-c2cnc(F)c(NCc3cccs3)n2)cc1` [Compound 97], under setting [1], the “COX2 2 minutes pge2/pge2d4 area ratio Avg. LLE” value is 4.517. For the same compound, the pIC50 under setting [2] was 7.12 and the pIC50 under setting [4] was 7.24. Also, the “COX2 2 minutes pge2 area” value under setting [3] is reported as 4.626.

As to `CS(=O)(=O)c1ccc(-c2cncc(OCc3ccsc3)n2)cc1` [Compound 134], the “COX2 2 minutes pge2/pge2d4 area ratio Avg. LLE” value under setting [1] is given as 4.3725. Further, the pIC50 was 6.74 under setting [2] and 6.62 under setting [4]. Moreover, under setting [3], the “COX2 2 minutes pge2 area” value is given as 4.235.

Take `CS(=O)(=O)c1ccc(-c2cc(OCc3cccs3)ncn2)cc1` [Compound 318]: the pIC50 under setting [5] is 5.28.

As to `CS(=O)(=O)c1ccc(-c2cc3c(cn2)cnn3Cc2cccs2)cc1` [Compound 301], under setting [5], the pIC50 was 5.28.

`COc1ncc(-c2ccc(S(C)(=O)=O)cc2)nc1NCc1ccncc1` [Compound 230]: under setting [1], the “COX2 2 minutes pge2/pge2d4 area ratio Avg. LLE” value is 4.383. Besides, the pIC50 runs as follows: under setting [2], 5.62; under setting [4], 5.61. In addition, the “COX2 2 minutes pge2 area” value under setting [3] turned out to be 4.367.

`CS(=O)(=O)c1ccc(-c2cccc([C@H](O)Cc3cccs3)n2)cc1` [Compound 284]: under setting [1], the “COX2 2 minutes pge2/pge2d4 area ratio Avg. LLE” value is recorded as 2.424. For the same compound, the “COX2 2 minutes pge2 area” value under setting [3] is on record as 2.424. Moreover, under setting [5], the pIC50 was 5.28.

As for `COc1cncc(-c2ccc(S(C)(=O)=O)cc2)n1` [Compound 299], under setting [6], the “COX2 10 minutes pge2 area” value amounted to 5.551. The pIC50 reads like this: under setting [7], 6.31; under setting [5], 5.28.

`CS(=O)(=O)c1ccc(-c2cccc(NCc3ccoc3)n2)cn1` [Compound 113]: the “COX2 2 minutes pge2/pge2d4 area ratio Avg. LLE” value under setting [1] was 4.956. Also, the pIC50 was 6.99 under setting [2] and 6.91 under setting [4]. In addition, the “COX2 2 minutes pge2 area” value under setting [3] came to 4.897.

`CS(=O)(=O)c1ccc(-c2ccnc(OCc3cccs3)c2)cc1` [Compound 267]: the “COX2 2 minutes pge2/pge2d4 area ratio Avg. LLE” value under setting [1] was 1.454. Also, the “COX2 2 minutes pge2 area” value under setting [3] worked out at 1.6998. Also, the pIC50 is 5.53 under setting [4] and 5.28 under setting [5].

In the case of `CS(=O)(=O)c1ccc(-c2cncc(OCc3ccccc3)n2)cc1` [Compound 172], the “COX2 2 minutes pge2/pge2d4 area ratio Avg. LLE” value under setting [1] was 4.174. The pIC50 is 6.35 under setting [2] and 6.28 under setting [4]. Besides, under setting [3], the “COX2 2 minutes pge2 area” value was 4.01.

As for `CS(=O)(=O)c1ccc(-c2cnc(C(N)=O)c(NCc3cccs3)n2)cc1` [Compound 219], under setting [1], the “COX2 2 minutes pge2/pge2d4 area ratio Avg. LLE” value amounted to 4.686. Besides, the pIC50 is 5.79 under setting [2] and 5.77 under setting [4]. The “COX2 2 minutes pge2 area” value under setting [3] is 4.669.

Regarding `CS(=O)(=O)c1ccc(-c2cccc(C(=O)Nc3cccs3)n2)cc1` [Compound 281], under setting [1], the “COX2 2 minutes pge2/pge2d4 area ratio Avg. LLE” value stood at 2.264. The pIC50 under setting [2] was 5.28.

For `CS(=O)(=O)c1ccc(-c2cncc(N3CCCCC3)n2)cc1` [Compound 262], under setting [1], the “COX2 2 minutes pge2/pge2d4 area ratio Avg. LLE” value is listed as 3.643. Besides, the pIC50 is 5.34 under setting [2], 5.39 under setting [4] and 5.29 under setting [7]. Moreover, the “COX2 2 minutes pge2 area” value under setting [3] is 3.693. Moreover, the “COX2 10 minutes pge2 area” value under setting [6] was 3.59.

As to `CS(=O)(=O)c1ccc(-c2cccc(OCc3ccc(Cl)s3)n2)cc1` [Compound 69], under setting [1], the “COX2 2 minutes pge2/pge2d4 area ratio Avg. LLE” value is 2.722. Besides, the pIC50 by setting is: under setting [2], 7.39; under setting [4], 7.54. Also, under setting [3], the “COX2 2 minutes pge2 area” value came to 2.834.

As for `CS(=O)(=O)c1ccc(-c2ccc3c(ncn3Cc3cccs3)n2)cc1` [Compound 308], the pIC50 under setting [5] is 5.28.

For the compound `CS(=O)(=O)c1ccc(-c2cc(OCc3cccs3)cnn2)cc1` [Compound 234], the “COX2 2 minutes pge2/pge2d4 area ratio Avg. LLE” value under setting [1] was 3.137. Also, the pIC50 is 5.61 under setting [2] and 5.62 under setting [4]. Moreover, under setting [3], the “COX2 2 minutes pge2 area” value came to 3.14.

The values above are taken from patent publication US20220348590A1, “CYCLOOXYGENASE-2 INHIBITORS AND USES THEREOF” (The Board Institute, Inc., priority 2019, published 2022).
